# Reference: PMC3089953 (Bioorganic & medicinal chemistry letters, 2009)
# “Also recorded” adds a separate entry of the source.
# How the values were obtained:
# PBM cells [1] = assay: Intracellular metabolism in PBM cells; assay type: in vitro ADME, human; conditions: 50 μM for 4 h at 37 °C, LC/MS/MS
# adenosine deaminase = assay: Conversion by purified adenosine deaminase; conditions: pH 7.4, 25 °C; for Conversion to AZG by adenosine deaminase: 0.2 units per mL enzyme, 120 min, 50 μM nucleoside
# PBM, CEM, and Vero cells = assay: Cytotoxicity in PBM, CEM and Vero cells; assay type: cell-based
# HIV-1LAI = assay: Anti-HIV activity against HIV-1LAI in human PBM cells; assay type: cell-based
# in vitro = assay type: cell-based; conditions: human, CEM cells (T-cell-derived cell line)
# [2] = Cytotoxicity in Vero cells; assay type: cell-based, African green monkey; conditions: African green monkey, Vero cells (kidney epithelial cells)
# CEM cells = assay: in vitro; assay type: cell-based; conditions: CEM cells
# Vero cells = assay: Cytotoxicity in Vero cells; assay type: cell-based, African green monkey; conditions: Vero cells
# [3] = cited from earlier work
# PBM cells [4] = assay: Cytotoxicity in PBM cells; assay type: cell-based; conditions: human
smiles,measurement,setting,value
COc1nc(N)nc2c1ncn2[C@H]1C[C@H](N=[N+]=[N-])[C@@H](CO)O1 [Compound 17],Conversion to AZG-TP in PBM cells,PBM cells [1],converted to AZG-TP
same,Detection of the nucleoside analog in the triphosphate (TP) form,PBM cells [1],unable to detect
same,Conversion to AZG by adenosine deaminase,adenosine deaminase,substantially or completely converted to AZG
[N-]=[N+]=N[C@H]1C[C@H](n2cnc3c(N)nc(F)nc32)O[C@@H]1CO [Compound 35],Cytotoxicity,"PBM, CEM, and Vero cells",increase in cytotoxicity
C#CCNc1nc(N)nc2c1ncn2[C@H]1C[C@H](N=[N+]=[N-])[C@@H](CO)O1 [Compound 22],Cytotoxicity,"PBM, CEM, and Vero cells",no toxicity
same,Anti-HIV activity,HIV-1LAI,significantly less active
CN(C)c1nc(N)nc2c1ncn2[C@H]1C[C@H](N=[N+]=[N-])[C@@H](CO)O1 [Compound 18],Conversion to AZG-TP in PBM cells,PBM cells [1],converted to AZG-TP
same,Detection of the nucleoside analog in the triphosphate (TP) form,PBM cells [1],unable to detect
same,IC50,in vitro,> 100 µM
same,Conversion to AZG by adenosine deaminase,adenosine deaminase,resistant to adenosine deaminase
same,IC50,[2],> 100 µM
CC(C)(CO)Nc1nc(N)nc2c1ncn2[C@H]1C[C@H](N=[N+]=[N-])[C@@H](CO)O1 [Compound 24],IC50,in vitro,> 100 µM
same,IC50,[2],> 100 µM
C=CCNc1nc(N)nc2c1ncn2[C@H]1C[C@H](N=[N+]=[N-])[C@@H](CO)O1 [Compound 20],Conversion to AZG-TP in PBM cells,PBM cells [1],converted to AZG-TP
same,Detection of the nucleoside analog in the triphosphate (TP) form,PBM cells [1],unable to detect
same,Conversion to AZG by adenosine deaminase,adenosine deaminase,substantially or completely converted to AZG
C=CCN(C)c1nc(N)nc2c1ncn2[C@H]1C[C@H](N=[N+]=[N-])[C@@H](CO)O1 [Compound 21],Toxicity in CEM cells,CEM cells,increased toxicity
same,Toxicity in Vero cells,Vero cells,increased toxicity
[N-]=[N+]=N[C@H]1C[C@H](n2cnc3c(Cl)nc(N)nc32)O[C@@H]1CO [Compound 10],Conversion to AZG-TP in PBM cells,PBM cells [1],converted to AZG-TP
same,Detection of the nucleoside analog in the triphosphate (TP) form,PBM cells [1],unable to detect
same,Conversion to AZG by adenosine deaminase,adenosine deaminase,substantially or completely converted to AZG
[N-]=[N+]=N[C@H]1C[C@H](n2cnc3c(N)nc(N)nc32)O[C@@H]1CO [Compound 12],Conversion to AZG-TP in PBM cells,PBM cells [1],converted to AZG-TP
same,Conversion to AZG by adenosine deaminase,adenosine deaminase,substantially or completely converted to AZG; also recorded: substantially converted to AZG
CN(C)c1nc(Cl)nc2c1ncn2[C@H]1C[C@H](N=[N+]=[N-])[C@@H](CO)O1 [Compound 34],IC50,in vitro,> 100 µM
same,IC50,[2],> 100 µM
COc1nc(OC)c2ncn([C@H]3C[C@H](N=[N+]=[N-])[C@@H](CO)O3)c2n1 [Compound 39],No cytotoxicity up to,"PBM, CEM, and Vero cells",> 100 µM
same,IC50,in vitro,> 100 µM
same,IC50,[2],> 100 µM
[N-]=[N+]=N[C@H]1C[C@H](n2cnc3c(Cl)nc(F)nc32)O[C@@H]1CO [Compound 37],Cytotoxicity,"PBM, CEM, and Vero cells",increase in cytotoxicity
COc1nc(F)nc2c1ncn2[C@H]1C[C@H](N=[N+]=[N-])[C@@H](CO)O1 [Compound 36],IC50,in vitro,> 100 µM
same,IC50,[2],> 100 µM
COc1nc(NC2CC2)c2ncn([C@H]3C[C@H](N=[N+]=[N-])[C@@H](CO)O3)c2n1 [Compound 40],IC50,in vitro,> 100 µM
same,IC50,[2],> 100 µM
COc1nc(N)c2ncn([C@H]3C[C@H](N=[N+]=[N-])[C@@H](CO)O3)c2n1 [Compound 38],IC50,in vitro,> 100 µM
same,IC50,[2],> 100 µM
"Cc1cn([C@H]2C[C@H](N=[N+]=[N-])[C@@H](CO)O2)c(=O)[nH]c1=O [AZT, 3′-Azido-3′-deoxythymidine]","Bone marrow toxicity, share of the patients",[3],about 5%
same,IC50,PBM cells [4],> 100 µM
[N-]=[N+]=N[C@H]1C[C@H](n2cnc3c(NC4CC4)nc(Cl)nc32)O[C@@H]1CO [Compound 33],IC50,in vitro,> 100 µM
same,IC50,[2],> 100 µM
[N-]=[N+]=N[C@H]1C[C@H](n2cnc3c(NCCO)nc(N)nc32)O[C@@H]1CO [Compound 26],IC50,in vitro,> 100 µM
same,IC50,[2],> 100 µM
[N-]=[N+]=N[C@H]1C[C@H](n2cnc3c(NC4CC4)nc(N)nc32)O[C@@H]1CO [Compound 19],Conversion to AZG-TP in PBM cells,PBM cells [1],converted to AZG-TP
same,Detection of the nucleoside analog in the triphosphate (TP) form,PBM cells [1],unable to detect
same,IC50,in vitro,> 100 µM
same,Conversion to AZG by adenosine deaminase,adenosine deaminase,substantially or completely converted to AZG
same,IC50,[2],> 100 µM
"Nc1ncnc2c1ncn2[C@H]1C[C@H](O)[C@@H](CO)O1 [2′-Deoxyadenosine, reference compound]",Deaminated to 2′-deoxyinosine,"adenosine deaminase; 7 min with 0.002 units of enzyme, 50 μM, positive control",59%
[N-]=[N+]=N[C@H]1C[C@H](n2cnc3c(N)nc(Cl)nc32)O[C@@H]1CO [Compound 31],IC50,in vitro,> 100 µM
same,IC50,[2],> 100 µM
COc1nc(Cl)nc2c1ncn2[C@H]1C[C@H](N=[N+]=[N-])[C@@H](CO)O1 [Compound 30],IC50,in vitro,> 100 µM
same,IC50,[2],> 100 µM
